Test results: US6960574B2, “Antagonists of RF-amide neuropeptides” (University of Florida, priority 2002, dated 2005)
Peptide text beside a SMILES is read from it. * marks the point of attachment. Dansyl = CN(C)c1cccc2c(S(=O)(=O)*)cccc12

The molecules below were run on receptor labeled by the radioiodinated analogue of 1 (4, [125I]-YLFQPQRF-NH2); neuropeptide FF receptor (assay: Competitive radioligand binding against 4 ([125I]Y8F-amide)). Details: mixture-based positional scanning; difference from averaged radioligand displacement of whole library (0); about 80 a.u. = 10-fold change in Ki.
Excerpt: Additionally, three-dimensional (3-D) molecular models of the known smaller-size neuropeptide FF antagonists 3 and 3a were constructed and their low-energy conformations were obtained in the AMBER force-field [Weiner, et al., J. Comput. Chem. 1986, 7, […].] by molecular dynamics calculations involving simulated annealing. A semi-empirical quantum chemical method with the PM3 parameterization [Stewart, J. Comput. Chem. 1989, 10, 209-220.] was used for the final geometry optimization. […] At least one of the rings in domain B is aromatic. No similarity between 3 and 3a outside these domains were apparent; therefore, the simultaneous presence of A and B domains in the structure of neuropeptide FF (1) antagonists is critical to the invention. Apparently, structural subunits (domain C) outside domains A and B should function in a cooperative manner in directing the pharmacophores into proper geometric positions when improved binding to the cognate receptor is to be obtained, which is associated with the improvement of the desired pharmacological effect. An approach involving mixture-based synthetic combinatorial libraries and positional scanning [(a) Houghten, et al., J. Med Chem. 1999, 42, 3743-3778.] was adopted in the search for preferred structural motifs in domain C that assist in achieving this objective in this invention. To allow for the use of 3 as a reference in this process, the guadinino group (A) was incorporated as part of an L-2-amino-5-{[amino(imino)methyl]amino}pentanoyl (arginyl, R, Arg) residue and 5-dimethylamino-1-naphthalenesulphonyl (dansyl) was chosen to form B (However, it must be emphasized that both R and dansyl are replaceable with moieties that bestow A and B domain attributes described in the invention).
Upon screening for residues to replace the glutamine of 3, serine (S) was the only building block in this position that increased the displacement of 4 in the radioligand-binding assay. Therefore, motifs present in dansyl-Gly-Ser-Arg-NH2, dansyl-Gly-Gln-Arg-NH2, dansyl-Gln-Ser-Arg-NH2, and dansyl-Gln-Gln-Arg-NH2 were chosen based on their affinity to the cognate receptor for further consideration as primary templates when designing the domain C of the compounds described in the invention herein. […]

Compared with `CN(C)c1cccc2c(S(=O)(=O)N[C@@H](CC(N)=O)C(=O)N[C@@H](Cc3ccc(O)cc3)C(=O)N[C@@H](CCCNC(=N)N)C(N)=O)cccc12` [Dansyl-NYR-amide] (Dansyl-Asn-Tyr-Arg-NH2), `CN(C)c1cccc2c(S(=O)(=O)N[C@@H](CCC(=O)O)C(=O)N[C@@H](Cc3ccc(O)cc3)C(=O)N[C@@H](CCCNC(=N)N)C(N)=O)cccc12` [Dansyl-EYR-amide] (Dansyl-Glu-Tyr-Arg-NH2) is higher in “Relative Binding Index (RBI)” value: 12 a.u for the first, 15 a.u for the second.

Going from `CSCC[C@H](NC(=O)[C@H](CO)NS(=O)(=O)c1cccc2c(N(C)C)cccc12)C(=O)N[C@@H](CCCNC(=N)N)C(N)=O` [Dansyl-SMR-amide] (Dansyl-Ser-Met-Arg-NH2) to `CSCC[C@H](NC(=O)[C@H](CCSC)NS(=O)(=O)c1cccc2c(N(C)C)cccc12)C(=O)N[C@@H](CCCNC(=N)N)C(N)=O` [Dansyl-MMR-amide] (Dansyl-Met-Met-Arg-NH2), the “Relative Binding Index (RBI)” value falls from 16 a.u to −44 a.u.

`C[C@H](NS(=O)(=O)c1cccc2c(N(C)C)cccc12)C(=O)NCC(=O)N[C@@H](CCCNC(=N)N)C(N)=O` [Dansyl-AGR-amide] (Dansyl-Ala-Gly-Arg-NH2) and `C[C@H](NS(=O)(=O)c1cccc2c(N(C)C)cccc12)C(=O)N[C@H](C(=O)N[C@@H](CCCNC(=N)N)C(N)=O)[C@@H](C)O` [Dansyl-ATR-amide] (Dansyl-Ala-Thr-Arg-NH2) are the same in “Relative Binding Index (RBI)” value: 18 a.u for the first, 18 a.u for the second.

`CC(C)C[C@H](NC(=O)[C@H](CO)NS(=O)(=O)c1cccc2c(N(C)C)cccc12)C(=O)N[C@@H](CCCNC(=N)N)C(N)=O` [Dansyl-SLR-amide] (Dansyl-Ser-Leu-Arg-NH2) and `CC(C)C[C@H](NC(=O)[C@H](CCC(=O)O)NS(=O)(=O)c1cccc2c(N(C)C)cccc12)C(=O)N[C@@H](CCCNC(=N)N)C(N)=O` [Dansyl-ELR-amide] (Dansyl-Glu-Leu-Arg-NH2) are the same in “Relative Binding Index (RBI)” value: 8 a.u for the first, 8 a.u for the second.

First: CC(C)[C@H](NC(=O)[C@H](CC(=O)O)NS(=O)(=O)c1cccc2c(N(C)C)cccc12)C(=O)N[C@@H](CCCNC(=N)N)C(N)=O [Dansyl-DVR-amide] (Dansyl-Asp-Val-Arg-NH2)
Second: C[C@H](NC(=O)[C@H](CC(=O)O)NS(=O)(=O)c1cccc2c(N(C)C)cccc12)C(=O)N[C@@H](CCCNC(=N)N)C(N)=O [Dansyl-DAR-amide] (Dansyl-Asp-Ala-Arg-NH2)
The “Relative Binding Index (RBI)” value of the first is higher: −10 a.u for the first, −55 a.u for the second.

First: CC(C)[C@H](NC(=O)[C@H](Cc1c[nH]cn1)NS(=O)(=O)c1cccc2c(N(C)C)cccc12)C(=O)N[C@@H](CCCNC(=N)N)C(N)=O [Dansyl-HVR-amide] (Dansyl-His-Val-Arg-NH2)
Second: CN(C)c1cccc2c(S(=O)(=O)N[C@@H](Cc3c[nH]cn3)C(=O)N[C@@H](CO)C(=O)N[C@@H](CCCNC(=N)N)C(N)=O)cccc12 [Dansyl-HSR-amide] (Dansyl-His-Ser-Arg-NH2)
The “Relative Binding Index (RBI)” value of the first is lower: 12 a.u for the first, 37 a.u for the second.

Compared with `CC[C@H](C)[C@H](NC(=O)[C@H](CO)NS(=O)(=O)c1cccc2c(N(C)C)cccc12)C(=O)N[C@@H](CCCNC(=N)N)C(N)=O` [Dansyl-SIR-amide] (Dansyl-Ser-Ile-Arg-NH2), `CC[C@H](C)[C@H](NS(=O)(=O)c1cccc2c(N(C)C)cccc12)C(=O)N[C@@H](CO)C(=O)N[C@@H](CCCNC(=N)N)C(N)=O` [Dansyl-ISR-amide] (Dansyl-Ile-Ser-Arg-NH2) is lower in “Relative Binding Index (RBI)” value: 23 a.u for the first, 10 a.u for the second.

Compared with `CSCC[C@H](NC(=O)[C@H](Cc1ccccc1)NS(=O)(=O)c1cccc2c(N(C)C)cccc12)C(=O)N[C@@H](CCCNC(=N)N)C(N)=O` [Dansyl-FMR-amide] (Dansyl-Phe-Met-Arg-NH2), `CN(C)c1cccc2c(S(=O)(=O)N[C@@H](Cc3ccccc3)C(=O)N[C@@H](CCCCN)C(=O)N[C@@H](CCCNC(=N)N)C(N)=O)cccc12` [Dansyl-FKR-amide] (Dansyl-Phe-Lys-Arg-NH2) is lower in “Relative Binding Index (RBI)” value: 9 a.u for the first, 7 a.u for the second.

Compared with `CN(C)c1cccc2c(S(=O)(=O)N[C@@H](Cc3ccccc3)C(=O)N[C@@H](CC(=O)O)C(=O)N[C@@H](CCCNC(=N)N)C(N)=O)cccc12` [Dansyl-FDR-amide] (Dansyl-Phe-Asp-Arg-NH2), `CN(C)c1cccc2c(S(=O)(=O)N[C@@H](Cc3c[nH]cn3)C(=O)N[C@@H](CC(N)=O)C(=O)N[C@@H](CCCNC(=N)N)C(N)=O)cccc12` [Dansyl-HNR-amide] (Dansyl-His-Asn-Arg-NH2) is higher in “Relative Binding Index (RBI)” value: −9 a.u for the first, 18 a.u for the second.

First: CC[C@H](C)[C@H](NS(=O)(=O)c1cccc2c(N(C)C)cccc12)C(=O)N[C@@H](CCC(=O)O)C(=O)N[C@@H](CCCNC(=N)N)C(N)=O [Dansyl-IER-amide] (Dansyl-Ile-Glu-Arg-NH2)
Second: CC[C@H](C)[C@H](NS(=O)(=O)c1cccc2c(N(C)C)cccc12)C(=O)N[C@@H](CC(=O)O)C(=O)N[C@@H](CCCNC(=N)N)C(N)=O [Dansyl-IDR-amide] (Dansyl-Ile-Asp-Arg-NH2)
The “Relative Binding Index (RBI)” value of the first is higher: −11 a.u for the first, −29 a.u for the second.

Going from `CN(C)c1cccc2c(S(=O)(=O)NCC(=O)N3CCC[C@H]3C(=O)N[C@@H](CCCNC(=N)N)C(N)=O)cccc12` [Dansyl-GPR-amide] (Dansyl-Gly-Pro-Arg-NH2) to `C[C@@H](O)[C@H](NC(=O)CNS(=O)(=O)c1cccc2c(N(C)C)cccc12)C(=O)N[C@@H](CCCNC(=N)N)C(N)=O` [Dansyl-GTR-amide] (Dansyl-Gly-Thr-Arg-NH2), the “Relative Binding Index (RBI)” value rises from 28 a.u to 31 a.u.

Compared with `CC(C)C[C@H](NS(=O)(=O)c1cccc2c(N(C)C)cccc12)C(=O)N[C@H](C(=O)N[C@@H](CCCNC(=N)N)C(N)=O)C(C)C` [Dansyl-LVR-amide] (Dansyl-Leu-Val-Arg-NH2), `CC(C)C[C@H](NS(=O)(=O)c1cccc2c(N(C)C)cccc12)C(=O)N[C@@H](CCCCN)C(=O)N[C@@H](CCCNC(=N)N)C(N)=O` [Dansyl-LKR-amide] (Dansyl-Leu-Lys-Arg-NH2) is higher in “Relative Binding Index (RBI)” value: −37 a.u for the first, −34 a.u for the second.

First: CN(C)c1cccc2c(S(=O)(=O)N[C@@H](CCCCN)C(=O)N[C@@H](Cc3ccc(O)cc3)C(=O)N[C@@H](CCCNC(=N)N)C(N)=O)cccc12 [Dansyl-KYR-amide] (Dansyl-Lys-Tyr-Arg-NH2)
Second: CC(C)[C@H](NS(=O)(=O)c1cccc2c(N(C)C)cccc12)C(=O)N[C@@H](Cc1ccc(O)cc1)C(=O)N[C@@H](CCCNC(=N)N)C(N)=O [Dansyl-VYR-amide] (Dansyl-Val-Tyr-Arg-NH2)
The “Relative Binding Index (RBI)” value of the first is higher: 23 a.u for the first, −6 a.u for the second.

Compared with `CN(C)c1cccc2c(S(=O)(=O)N[C@@H](CCC(N)=O)C(=O)N[C@@H](CC(N)=O)C(=O)N[C@@H](CCCNC(=N)N)C(N)=O)cccc12` [Dansyl-QNR-amide] (Dansyl-Gln-Asn-Arg-NH2), `CSCC[C@H](NS(=O)(=O)c1cccc2c(N(C)C)cccc12)C(=O)N[C@@H](CCCCN)C(=O)N[C@@H](CCCNC(=N)N)C(N)=O` [Dansyl-MKR-amide] (Dansyl-Met-Lys-Arg-NH2) is lower in “Relative Binding Index (RBI)” value: 23 a.u for the first, −46 a.u for the second.

First: CN(C)c1cccc2c(S(=O)(=O)N[C@@H](Cc3ccc(O)cc3)C(=O)N[C@@H](Cc3cnc[nH]3)C(=O)N[C@@H](CCCNC(=N)N)C(N)=O)cccc12 [Dansyl-YHR-amide] (Dansyl-Tyr-His-Arg-NH2)
Second: CC(C)[C@H](NS(=O)(=O)c1cccc2c(N(C)C)cccc12)C(=O)N[C@@H](Cc1cnc[nH]1)C(=O)N[C@@H](CCCNC(=N)N)C(N)=O [Dansyl-VHR-amide] (Dansyl-Val-His-Arg-NH2)
The “Relative Binding Index (RBI)” value of the first is higher: 1 a.u for the first, −10 a.u for the second.

Compared with `CN(C)c1cccc2c(S(=O)(=O)N[C@@H](CCCCN)C(=O)N[C@@H](CCCCN)C(=O)N[C@@H](CCCNC(=N)N)C(N)=O)cccc12` [Dansyl-KKR-amide] (Dansyl-Lys-Lys-Arg-NH2), `CSCC[C@H](NC(=O)[C@H](Cc1c[nH]c2ccccc12)NS(=O)(=O)c1cccc2c(N(C)C)cccc12)C(=O)N[C@@H](CCCNC(=N)N)C(N)=O` [Dansyl-WMR-amide] (Dansyl-Trp-Met-Arg-NH2) is lower in “Relative Binding Index (RBI)” value: 22 a.u for the first, 9 a.u for the second.

With `CC(C)C[C@H](NS(=O)(=O)c1cccc2c(N(C)C)cccc12)C(=O)N[C@@H](Cc1c[nH]c2ccccc12)C(=O)N[C@@H](CCCNC(=N)N)C(N)=O` [Dansyl-LWR-amide] (Dansyl-Leu-Trp-Arg-NH2) the “Relative Binding Index (RBI)” value was −23 a.u.
